Results: the OligoGym collection
HELM strings list units from the 5' end as sugar, base in round brackets, then linkage (d deoxyribose, r ribose, m 2'-O-methyl, p phosphodiester). Strings are as the collection lists them; they lack the last nucleoside at the 3' end of the tested compound. [moe] = 2'-O-(2-methoxyethyl) (MOE); [sp] = phosphorothioate linkage; [m5C] = 5-methylcytosine

What follows are substances tested against UBE3A-ATS (assay: mouse, dose not given). Conditions: ASO.

| Substance | 3 h FOB score [score 0-7] |
| --- | --- |
| RNA1{[moe](T)[sp].[moe](G)p.[moe](T)p.[moe](G)p.[moe](T)p.[moe](T)p.d(T)[sp].d(T)[sp].d(T)[sp].d([m5C])[sp].d([m5C])[sp].d(A)[sp].d(T)[sp].d(T)[sp].d(T)[sp].d(T)[sp].[moe](T)p.[moe]([m5C])[sp].[moe](T)}$$$$ (last 3' nucleoside missing) | 0 |
| RNA1{[moe](T)[sp].[moe](G)p.[moe](T)p.[moe](G)p.[moe](T)p.d(G)[sp].d(T)[sp].d(T)[sp].d(T)[sp].d(T)[sp].d(T)[sp].d([m5C])[sp].d([m5C])[sp].d(A)[sp].d(T)[sp].[moe](T)p.[moe](T)p.[moe](T)[sp].[moe](T)}$$$$ (last 3' nucleoside missing) | 0 |
| RNA1{[moe](T)[sp].[moe](G)p.[moe](T)p.[moe](G)p.[moe](T)p.d(T)[sp].d(T)[sp].d(T)[sp].d(T)[sp].d([m5C])[sp].d([m5C])[sp].d(A)[sp].d(T)[sp].d(T)[sp].d(T)[sp].[moe](T)p.[moe](T)p.[moe]([m5C])[sp].[moe](T)}$$$$ (last 3' nucleoside missing) | 0 |
| RNA1{[moe](T)[sp].[moe](G)p.[moe](T)p.[moe](G)p.[moe]([m5C])[sp].d(A)[sp].d(T)[sp].d(A)[sp].d([m5C])[sp].d([m5C])[sp].d([m5C])[sp].d(A)[sp].d(G)[sp].[moe](G)p.[moe](G)p.[moe](T)[sp].[moe](A)}$$$$ (last 3' nucleoside missing) | 1 |
| RNA1{[moe](T)[sp].[moe](G)p.[moe](T)p.[moe](G)p.[moe]([m5C])p.[moe](A)[sp].d(T)[sp].d(A)[sp].d([m5C])[sp].d([m5C])[sp].d([m5C])[sp].d(A)[sp].d(G)[sp].d(G)[sp].[moe](G)p.[moe](T)[sp].[moe](A)}$$$$ (last 3' nucleoside missing) | 1 |
| RNA1{[moe](T)[sp].[moe](G)p.[moe](T)p.[moe](G)p.[moe]([m5C])p.[moe](A)p.d(T)[sp].d(A)[sp].d([m5C])[sp].d([m5C])[sp].d([m5C])[sp].d(A)[sp].d(G)[sp].d(G)[sp].d(G)[sp].d(T)[sp].[moe](A)p.[moe](G)[sp].[moe](G)}$$$$ (last 3' nucleoside missing) | 0 |
| RNA1{[moe](T)[sp].[moe](G)p.[moe](T)p.[moe](G)p.[moe]([m5C])p.d(A)[sp].d(T)[sp].d(A)[sp].d([m5C])[sp].d([m5C])[sp].d([m5C])[sp].d(A)[sp].d(G)[sp].d(G)[sp].d(G)[sp].[moe](T)p.[moe](A)p.[moe](G)[sp].[moe](G)}$$$$ (last 3' nucleoside missing) | 3 |
| RNA1{[moe](T)[sp].[moe](G)p.[moe](T)p.[moe](G)p.d(T)[sp].d(G)[sp].d(T)[sp].d(T)[sp].d(T)[sp].d(T)[sp].d(T)[sp].d([m5C])[sp].d([m5C])[sp].d(A)[sp].[moe](T)p.[moe](T)p.[moe](T)p.[moe](T)[sp].[moe](T)}$$$$ (last 3' nucleoside missing) | 1 |
| RNA1{[moe](T)[sp].[moe](G)p.[moe](T)p.[moe](G)p.d(T)[sp].d(T)[sp].d(T)[sp].d(T)[sp].d(T)[sp].d([m5C])[sp].d([m5C])[sp].d(A)[sp].d(T)[sp].d(T)[sp].[moe](T)p.[moe](T)p.[moe](T)p.[moe]([m5C])[sp].[moe](T)}$$$$ (last 3' nucleoside missing) | 1 |
| RNA1{[moe](T)[sp].[moe](G)p.[moe](T)p.[moe](G)p.d([m5C])[sp].d(A)[sp].d(T)[sp].d(A)[sp].d([m5C])[sp].d([m5C])[sp].d([m5C])[sp].d(A)[sp].d(G)[sp].d(G)[sp].[moe](G)p.[moe](T)p.[moe](A)p.[moe](G)[sp].[moe](G)}$$$$ (last 3' nucleoside missing) | 1 |
| RNA1{[moe](T)[sp].[moe](G)p.[moe](T)p.[moe](T)p.[moe](G)p.d(T)[sp].d(A)[sp].d(T)[sp].d(G)[sp].d([m5C])[sp].d(A)[sp].d(G)[sp].d(G)[sp].d(T)[sp].d(T)[sp].[moe]([m5C])p.[moe](A)p.[moe](T)[sp].[moe]([m5C])}$$$$ (last 3' nucleoside missing) | 4.5 |
| RNA1{[moe](T)[sp].[moe](G)p.[moe](T)p.[moe]([m5C])p.[moe](G)p.d(A)[sp].d(G)[sp].d(A)[sp].d(A)[sp].d([m5C])[sp].d(T)[sp].d([m5C])[sp].d(A)[sp].d(A)[sp].d(A)[sp].[moe](A)p.[moe](G)p.[moe](G)[sp].[moe](T)}$$$$ (last 3' nucleoside missing) | 4.5 |
| RNA1{[moe](T)[sp].[moe](G)p.[moe](T)p.[moe]([m5C])p.[moe](T)p.d([m5C])[sp].d(T)[sp].d(A)[sp].d(A)[sp].d(T)[sp].d([m5C])[sp].d([m5C])[sp].d(T)[sp].d(A)[sp].d(T)[sp].[moe](T)p.[moe]([m5C])p.[moe]([m5C])[sp].[moe](A)}$$$$ (last 3' nucleoside missing) | 0 |
| RNA1{[moe](T)[sp].[moe](G)p.[moe]([m5C])p.[moe](A)[sp].d(T)[sp].d(A)[sp].d([m5C])[sp].d([m5C])[sp].d([m5C])[sp].d(A)[sp].d(G)[sp].d(G)[sp].[moe](G)p.[moe](T)p.[moe](A)p.[moe](G)[sp].[moe](G)}$$$$ (last 3' nucleoside missing) | 0 |
| RNA1{[moe](T)[sp].[moe](G)p.[moe]([m5C])p.[moe](A)p.[moe](T)[sp].d(A)[sp].d([m5C])[sp].d([m5C])[sp].d([m5C])[sp].d(A)[sp].d(G)[sp].d(G)[sp].d(G)[sp].[moe](T)p.[moe](A)p.[moe](G)[sp].[moe](G)}$$$$ (last 3' nucleoside missing) | 1 |
| RNA1{[moe](T)[sp].[moe](G)p.[moe]([m5C])p.[moe](A)p.[moe](T)p.[moe](A)[sp].d([m5C])[sp].d([m5C])[sp].d([m5C])[sp].d(A)[sp].d(G)[sp].d(G)[sp].d(G)[sp].d(T)[sp].[moe](A)p.[moe](G)[sp].[moe](G)}$$$$ (last 3' nucleoside missing) | 2 |
| RNA1{[moe](T)[sp].[moe](G)p.[moe]([m5C])p.[moe](A)p.[moe](T)p.[moe](A)p.d([m5C])[sp].d([m5C])[sp].d([m5C])[sp].d(A)[sp].d(G)[sp].d(G)[sp].d(G)[sp].d(T)[sp].d(A)[sp].d(G)[sp].[moe](G)p.[moe](A)[sp].[moe](T)}$$$$ (last 3' nucleoside missing) | 4 |
| RNA1{[moe](T)[sp].[moe](G)p.[moe]([m5C])p.[moe](A)p.[moe](T)p.d(A)[sp].d(A)[sp].d(A)[sp].d(G)[sp].d([m5C])[sp].d([m5C])[sp].d(A)[sp].d(G)[sp].d(G)[sp].d([m5C])[sp].[moe]([m5C])p.[moe](A)p.[moe](G)[sp].[moe](G)}$$$$ (last 3' nucleoside missing) | 2.2 |
| RNA1{[moe](T)[sp].[moe](G)p.[moe]([m5C])p.[moe](A)p.[moe](T)p.d(A)[sp].d([m5C])[sp].d([m5C])[sp].d([m5C])[sp].d(A)[sp].d(G)[sp].d(G)[sp].d(G)[sp].d(T)[sp].d(A)[sp].[moe](G)p.[moe](G)p.[moe](A)[sp].[moe](T)}$$$$ (last 3' nucleoside missing) | 2 |
| RNA1{[moe](T)[sp].[moe](G)p.[moe]([m5C])p.[moe](A)p.[moe](T)p.d(G)[sp].d(T)[sp].d(G)[sp].d(G)[sp].d(G)[sp].d([m5C])[sp].d([m5C])[sp].d(T)[sp].d([m5C])[sp].d(T)[sp].[moe](A)p.[moe](T)p.[moe](T)[sp].[moe](A)}$$$$ (last 3' nucleoside missing) | 4 |
| RNA1{[moe](T)[sp].[moe](G)p.[moe]([m5C])p.[moe](A)p.d(T)[sp].d(A)[sp].d([m5C])[sp].d([m5C])[sp].d([m5C])[sp].d(A)[sp].d(G)[sp].d(G)[sp].d(G)[sp].d(T)[sp].[moe](A)p.[moe](G)p.[moe](G)p.[moe](A)[sp].[moe](T)}$$$$ (last 3' nucleoside missing) | 1 |
| RNA1{[moe](T)[sp].[moe](G)p.[moe]([m5C])p.[moe](T)[sp].d(T)[sp].d([m5C])[sp].d(A)[sp].d([m5C])[sp].d([m5C])[sp].d(A)[sp].d(T)[sp].d(T)[sp].[moe](T)p.[moe](T)p.[moe](G)p.[moe](A)[sp].[moe]([m5C])}$$$$ (last 3' nucleoside missing) | 0 |
| RNA1{[moe](T)[sp].[moe](G)p.[moe]([m5C])p.[moe](T)[sp].d([m5C])[sp].d(A)[sp].d(G)[sp].d(T)[sp].d(T)[sp].d(A)[sp].d(G)[sp].d(G)[sp].[moe](T)p.[moe](T)p.[moe](A)p.[moe](G)[sp].[moe](T)}$$$$ (last 3' nucleoside missing) | 7 |
| RNA1{[moe](T)[sp].[moe](G)p.[moe]([m5C])p.[moe](T)p.[moe](G)p.[moe](A)p.d(T)[sp].d([m5C])[sp].d(A)[sp].d([m5C])[sp].d(A)[sp].d(T)[sp].d(T)[sp].d(A)[sp].d([m5C])[sp].d([m5C])[sp].[moe]([m5C])p.[moe](A)[sp].[moe](T)}$$$$ (last 3' nucleoside missing) | 1 |
| RNA1{[moe](T)[sp].[moe](G)p.[moe]([m5C])p.[moe](T)p.[moe](G)p.d(A)[sp].d(T)[sp].d([m5C])[sp].d(A)[sp].d([m5C])[sp].d(A)[sp].d(T)[sp].d(T)[sp].d(A)[sp].d([m5C])[sp].[moe]([m5C])p.[moe]([m5C])p.[moe](A)[sp].[moe](T)}$$$$ (last 3' nucleoside missing) | 0 |
| RNA1{[moe](T)[sp].[moe](G)p.[moe]([m5C])p.[moe](T)p.[moe](T)p.[moe]([m5C])p.d(A)[sp].d([m5C])[sp].d([m5C])[sp].d(A)[sp].d(T)[sp].d(T)[sp].d(T)[sp].d(T)[sp].d(G)[sp].d(A)[sp].[moe]([m5C])p.[moe]([m5C])[sp].[moe](T)}$$$$ (last 3' nucleoside missing) | 0 |
| RNA1{[moe](T)[sp].[moe](G)p.[moe]([m5C])p.[moe](T)p.[moe](T)p.d([m5C])[sp].d(A)[sp].d([m5C])[sp].d([m5C])[sp].d(A)[sp].d(T)[sp].d(T)[sp].d(T)[sp].d(T)[sp].d(G)[sp].[moe](A)p.[moe]([m5C])p.[moe]([m5C])[sp].[moe](T)}$$$$ (last 3' nucleoside missing) | 1 |
